Source: patent publication US20230265151A1, “GIP/GLP1 CO-AGONIST COMPOUNDS” (priority 2020, published 2023)
Like-named read-outs stand apart in the source and are kept apart here. *1 amine or outer side, *2 acyl side, *3 side chain or, on linkers, in order; H or OH if unused. Where a SMILES comes first, the peptide text is derived from it. Side-chain parts run from the residue outwards. [ ]: non-standard residue; d: D form. The star is where a group is joined. Decanoyl(10-(4-HOOC-PhO)) = O=C(O)c1ccc(OCCCCCCCCCC(=O)*)cc1; αMePhe(2-F) = C[C@](N)(Cc1ccccc1F)C(=O)O; γGlu = O=C(O)[C@H](CCC(=O)[*:2])N[*:1]; αMeY = C[C@](N)(Cc1ccc(O)cc1)C(=O)O; αMeL = CC(C)C[C@](C)(N)C(=O)O; Orn = NCCC[C@H](N)C(=O)O; AEEA = NCCOCCOCC(=O)O; Aib = CC(C)(N)C(=O)O

Legend:
Assay type in all cases: cell-based
[1] = target: T1, hGCGR (Homo sapiens, UniProt P47871); assay: Functional cAMP formation (HTRF) in HEK-293 clonal cells expressing hGCGR, 0.1% bovine casein, without or with 1.0% human serum albumin
T1 construct: expressed in transfected cells
How it was run: (§1)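 Cells were stimulated with peptide for 30 min at 37° C, then intracellular cAMP was measured by competitive HTRF (665/620 nm ratio) and converted to nM using a cAMP standard curve. Relative EC50 and Emax came from four-parameter logistic fits of percent maximal response against peptide concentration.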

[2] = target: hGLP-1R (Homo sapiens, UniProt P43220); assay: Functional cAMP formation (HTRF) in HEK-293 clonal cells expressing hGLP-1R, 0.1% bovine casein, without or with 1.0% human serum albumin; parameters: expressed in transfected cells; settings: for EC50: geometric mean
How it was run: as §1

[3] = target: T2, hGIPR (Homo sapiens, UniProt P48546); assay: Functional cAMP formation (HTRF) in HEK-293 clonal cells expressing hGIPR, 0.1% bovine casein, without or with 1.0% human serum albumin; settings: for EC50: geometric mean
T2 construct: expressed in transfected cells
T2 sequence (P48546 22-466): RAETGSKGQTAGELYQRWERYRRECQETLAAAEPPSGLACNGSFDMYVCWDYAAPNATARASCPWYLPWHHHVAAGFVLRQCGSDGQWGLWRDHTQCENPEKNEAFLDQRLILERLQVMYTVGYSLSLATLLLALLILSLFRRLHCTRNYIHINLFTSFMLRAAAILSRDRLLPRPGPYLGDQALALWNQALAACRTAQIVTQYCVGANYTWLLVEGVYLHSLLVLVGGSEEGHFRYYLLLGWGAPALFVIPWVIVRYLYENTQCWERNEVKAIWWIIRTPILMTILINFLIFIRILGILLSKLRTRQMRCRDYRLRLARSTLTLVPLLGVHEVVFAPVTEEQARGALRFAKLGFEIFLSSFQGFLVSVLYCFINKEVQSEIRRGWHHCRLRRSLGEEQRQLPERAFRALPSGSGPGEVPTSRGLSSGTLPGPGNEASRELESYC
How it was run: as §1

[4] = 0.1% bovine casein and 1.0% human serum albumin, 37° C., geometric mean, read-out: hGCGR EC50, nM (SEM, n)
[5] = HEK293, 0.1% bovine casein and 1.0% human serum albumin, 37° C., percent of maximal response to GIP(1-42)NH2, read-out: hGIPR Emax, % ± SEM
[6] = hGCGR EC50, nM (SEM, n), cAMP, 37° C., 0.1% bovine casein (no human serum albumin), geometric mean
[7] = HEK293, read-out: hGLP-1R Emax, % ± SEM, cAMP, 37° C., 0.1% bovine casein, percent of maximal response to GLP-1(7-36)NH2, arithmetic mean
[8] = hGLP-1R EC50, nM (SEM, n), cAMP, 37° C., 0.1% bovine casein (no human serum albumin)
[9] = HEK293, read-out: hGIPR Emax, % ± SEM, cAMP, 37° C., 0.1% bovine casein, percent of maximal response to GIP(1-42)NH2, arithmetic mean
[10] = hGIPR EC50, nM (SEM, n), cAMP, 37° C., 0.1% bovine casein (no human serum albumin)

T1 sequence (P47871 26-477): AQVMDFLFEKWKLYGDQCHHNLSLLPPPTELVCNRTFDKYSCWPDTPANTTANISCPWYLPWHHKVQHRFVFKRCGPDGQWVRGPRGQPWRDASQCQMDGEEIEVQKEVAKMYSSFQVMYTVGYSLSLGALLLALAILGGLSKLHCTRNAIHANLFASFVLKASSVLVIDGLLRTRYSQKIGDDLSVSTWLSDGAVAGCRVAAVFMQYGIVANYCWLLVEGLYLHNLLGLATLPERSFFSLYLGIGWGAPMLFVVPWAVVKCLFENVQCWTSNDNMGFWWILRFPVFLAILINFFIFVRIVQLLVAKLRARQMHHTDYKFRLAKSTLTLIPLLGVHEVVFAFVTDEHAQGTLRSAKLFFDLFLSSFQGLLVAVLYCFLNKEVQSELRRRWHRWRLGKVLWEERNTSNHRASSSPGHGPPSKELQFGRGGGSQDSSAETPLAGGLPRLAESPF
Sequence of hGLP-1R (P43220 24-463): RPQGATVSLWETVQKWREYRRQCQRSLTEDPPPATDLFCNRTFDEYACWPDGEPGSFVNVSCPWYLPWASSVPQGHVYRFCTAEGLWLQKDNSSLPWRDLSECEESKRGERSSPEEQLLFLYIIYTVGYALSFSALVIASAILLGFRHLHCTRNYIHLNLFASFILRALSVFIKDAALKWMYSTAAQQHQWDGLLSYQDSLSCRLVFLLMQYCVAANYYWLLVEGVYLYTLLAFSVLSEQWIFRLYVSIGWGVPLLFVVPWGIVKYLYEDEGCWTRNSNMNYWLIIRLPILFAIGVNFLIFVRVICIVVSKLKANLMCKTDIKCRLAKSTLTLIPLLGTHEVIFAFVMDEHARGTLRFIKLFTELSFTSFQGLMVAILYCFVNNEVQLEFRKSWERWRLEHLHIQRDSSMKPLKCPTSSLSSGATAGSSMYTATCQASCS

## CC[C@H](C)[C@H](NC(=O)[C@H](CCCN)NC(=O)[C@H](CC(=O)O)NC(=O)[C@H](CC(C)C)NC(=O)[C@](C)(CC(C)C)NC(=O)[C@@H](NC(=O)[C@](C)(CO)NC(=O)[C@H](Cc1ccncc1)NC(=O)[C@H](CC(=O)O)NC(=O)[C@H](CO)NC(=O)[C@@H](NC(=O)[C@](C)(Cc1ccccc1F)NC(=O)[C@@H](NC(=O)CNC(=O)[C@H](CCC(=O)O)NC(=O)C(C)(C)NC(=O)[C@@H](N)Cc1ccc(O)cc1)[C@@H](C)O)[C@@H](C)O)[C@@H](C)CC)C(=O)N[C@@H](C)C(=O)N[C@@H](CCC(N)=O)C(=O)NC(C)(C)C(=O)N[C@@H](CCC(=O)O)C(=O)N[C@@H](Cc1ccccc1)C(=O)N[C@H](C(=O)N[C@@H](CCCCNC(=O)COCCOCCNC(=O)COCCOCCNC(=O)CC[C@H](NC(=O)CCCCCCCCCCCCC(=O)O)C(=O)O)C(=O)N[C@@](C)(Cc1ccc(O)cc1)C(=O)N[C@@H](CC(C)C)C(=O)N[C@H](C(=O)N[C@@H](CCCCNC(=O)COCCOCCNC(=O)COCCOCCNC(=O)CC[C@H](NC(=O)CCCCCCCCCCCCC(=O)O)C(=O)O)C(=O)NCC(=O)NCC(=O)N1CCC[C@H]1C(=O)N[C@@H](CO)C(=O)N[C@@H](CO)C(=O)NCC(=O)N[C@@H](C)C(=O)N1CCC[C@H]1C(=O)N1CCC[C@H]1C(=O)N1CCC[C@H]1C(=O)N[C@@H](CO)C(N)=O)[C@@H](C)CC)[C@@H](C)CC [Example 216]
[1]; [4]
  EC50: > 9950 nM
[1]; cAMP, incubated at 37° C., 0.1% bovine casein (no human serum albumin), geometric mean, read-out: hGCGR EC50, nM (SEM, n)
  EC50: > 9950 nM
[2]; 0.1% bovine casein and 1.0% human serum albumin, 37° C., read-out: hGLP-1R EC50, nM (SEM, n)
  EC50: 32.3 nM
[2]; HEK293, 0.1% bovine casein and 1.0% human serum albumin, 37° C., percent of maximal response to GLP-1(7-36)NH2, read-out: hGLP-1R Emax, % ± SEM
  Emax: 117%
[2]; HEK293, percent of maximal response to GLP-1(7-36)NH2, 37° C., 0.1% bovine casein, arithmetic mean, read-out: hGLP-1R Emax, % ± SEM
  Emax: 93.6%
[2]; cAMP, incubated at 37° C., 0.1% bovine casein (no human serum albumin), read-out: hGLP-1R EC50, nM (SEM, n)
  EC50: 0.384 nM
[3]; [5]
  Emax: 63.4%
[3]; HEK293, percent of maximal response to GIP(1-42)NH2, 37° C., 0.1% bovine casein, arithmetic mean, read-out: hGIPR Emax, % ± SEM
  Emax: 88.5%
[3]; cAMP, incubated at 37° C., 0.1% bovine casein (no human serum albumin), read-out: hGIPR EC50, nM (SEM, n)
  EC50: 0.0287 nM

## CC[C@H](C)[C@H](NC(=O)[C@H](CCCN)NC(=O)[C@H](CC(=O)O)NC(=O)[C@H](CC(C)C)NC(=O)[C@](C)(CC(C)C)NC(=O)[C@@H](NC(=O)C(C)(C)NC(=O)[C@@H](NC(=O)[C@H](CC(=O)O)NC(=O)[C@H](CO)NC(=O)[C@@H](NC(=O)[C@](C)(Cc1ccccc1F)NC(=O)[C@@H](NC(=O)CNC(=O)[C@H](CCC(=O)O)NC(=O)C(C)(C)NC(=O)[C@@H](N)Cc1ccc(O)cc1)[C@@H](C)O)[C@@H](C)O)C(C)C)[C@@H](C)CC)C(=O)N[C@@H](C)C(=O)N[C@@H](CCC(N)=O)C(=O)NC(C)(C)C(=O)N[C@@H](CCCCNC(=O)COCCOCCNC(=O)COCCOCCNC(=O)CC[C@H](NC(=O)CCCCCCCCCOc1ccc(C(=O)O)cc1)C(=O)O)C(=O)N[C@@H](Cc1ccccc1)C(=O)N[C@H](C(=O)N[C@H](CCC(=O)O)C(=O)N[C@@](C)(Cc1ccc(O)cc1)C(=O)N[C@@H](CC(C)C)C(=O)N[C@H](C(=O)N[C@@H](CCC(=O)O)C(=O)NCC(=O)NCC(=O)N1CCC[C@H]1C(=O)N[C@@H](CO)C(=O)N[C@@H](CO)C(=O)NCC(=O)N[C@@H](C)C(=O)N1CCC[C@H]1C(=O)N1CCC[C@H]1C(=O)N1CCC[C@H]1C(=O)N[C@@H](CO)C(=O)N[C@@H](CCCCNC(=O)COCCOCCNC(=O)COCCOCCNC(=O)CC[C@H](NC(=O)CCCCCCCCCOc1ccc(C(=O)O)cc1)C(=O)O)C(N)=O)[C@@H](C)CC)[C@@H](C)CC [Example 383] (H-Y[Aib]EGT[αMePhe(2-F)]TSDV[Aib]I[αMeL]LD[Orn]IAQ[Aib]K([AEEA-AEEA-γGlu-Decanoyl(10-(4-HOOC-PhO))])FI[dE][αMeY]LIEGGPSSGAPPPSK([AEEA-AEEA-γGlu-Decanoyl(10-(4-HOOC-PhO))])-NH2)
[1]; [6]
  EC50: > 9950 nM
[1]; hGCGR EC50, nM (SEM, n), cAMP, 37° C., 0.1% bovine casein and 1.0% human serum albumin, geometric mean (SEM, n)
  EC50: > 9950 nM
[2]; [7]
  Emax: 105%
[2]; [8]
  EC50: 0.306 nM
[3]; HEK293, read-out: hGIPR Emax, % ± SEM, cAMP, 37° C., 0.1% bovine casein and 1.0% human serum albumin, percent of maximal response to GIP(1-42)NH2
  Emax: 82.8%
[3]; [9]
  Emax: 100%
[3]; [10]
  EC50: 0.0147 nM

## CC[C@H](C)[C@H](NC(=O)[C@H](CCCN)NC(=O)[C@H](CC(=O)O)NC(=O)[C@H](CC(C)C)NC(=O)[C@](C)(CC(C)C)NC(=O)[C@@H](NC(=O)C(C)(C)NC(=O)[C@H](Cc1ccncc1)NC(=O)[C@H](CC(=O)O)NC(=O)[C@H](CO)NC(=O)[C@@H](NC(=O)[C@](C)(Cc1ccccc1F)NC(=O)[C@@H](NC(=O)CNC(=O)[C@H](CCC(=O)O)NC(=O)C(C)(C)NC(=O)[C@@H](N)Cc1ccc(O)cc1)[C@@H](C)O)[C@@H](C)O)[C@@H](C)CC)C(=O)N[C@@H](C)C(=O)N[C@@H](CCC(N)=O)C(=O)NC(C)(C)C(=O)N[C@@H](CCC(=O)O)C(=O)N[C@@H](Cc1ccccc1)C(=O)N[C@H](C(=O)N[C@@H](CCCCNC(=O)COCCOCCNC(=O)COCCOCCNC(=O)CC[C@H](NC(=O)CCCCCCCCCCOc1ccc(C(=O)O)cc1)C(=O)O)C(=O)N[C@@](C)(Cc1ccc(O)cc1)C(=O)N[C@@H](CC(C)C)C(=O)N[C@H](C(=O)N[C@@H](CCCCNC(=O)COCCOCCNC(=O)COCCOCCNC(=O)CC[C@H](NC(=O)CCCCCCCCCCOc1ccc(C(=O)O)cc1)C(=O)O)C(=O)NCC(=O)NCC(=O)N1CCC[C@H]1C(=O)N[C@@H](CO)C(=O)N[C@@H](CO)C(=O)NCC(=O)N[C@@H](C)C(=O)N1CCC[C@H]1C(=O)N1CCC[C@H]1C(=O)N1CCC[C@H]1C(=O)N[C@@H](CO)C(N)=O)[C@@H](C)CC)[C@@H](C)CC [Example 311]
[1]; hGCGR EC50, nM (SEM, n), 0.1% bovine casein and 1.0% human serum albumin, 37° C., geometric mean
  EC50: > 9950 nM
[1]; [6]
  EC50: > 9950 nM
[2]; [7]
  Emax: 110%
[2]; [8]
  EC50: 0.791 nM
[3]; HEK293, read-out: hGIPR Emax, % ± SEM, 0.1% bovine casein and 1.0% human serum albumin, 37° C., percent of maximal response to GIP(1-42)NH2
  Emax: 98.3%
[3]; [9]
  Emax: 105%
[3]; hGIPR EC50, nM (SEM, n), 0.1% bovine casein and 1.0% human serum albumin, 37° C.
  EC50: 2.16 nM
[3]; [10]
  EC50: 0.0243 nM

## CC[C@H](C)[C@H](NC(=O)[C@H](CC(C)C)NC(=O)[C@](C)(Cc1ccc(O)cc1)NC(=O)[C@@H](CCC(=O)O)NC(=O)[C@@H](NC(=O)[C@H](Cc1ccccc1)NC(=O)[C@H](CCC(=O)O)NC(=O)C(C)(C)NC(=O)[C@H](CCC(N)=O)NC(=O)[C@H](C)NC(=O)[C@H](CCCCNC(=O)COCCOCCNC(=O)COCCOCCNC(=O)CC[C@H](NC(=O)CCCCCCCCCCCCC(=O)O)C(=O)O)NC(=O)[C@H](CCCN)NC(=O)[C@H](CC(=O)O)NC(=O)[C@H](CC(C)C)NC(=O)[C@](C)(CC(C)C)NC(=O)[C@@H](NC(=O)[C@H](CO)NC(=O)[C@H](Cc1ccc2ccccc2c1)NC(=O)[C@H](CC(=O)O)NC(=O)[C@H](CO)NC(=O)[C@@H](NC(=O)[C@](C)(Cc1ccccc1F)NC(=O)[C@@H](NC(=O)CNC(=O)[C@H](CCC(=O)O)NC(=O)C(C)(C)NC(=O)[C@@H](N)Cc1ccc(O)cc1)[C@@H](C)O)[C@@H](C)O)[C@@H](C)CC)[C@@H](C)CC)C(=O)N[C@@H](CCC(=O)O)C(=O)NCC(=O)NCC(=O)N1CCC[C@H]1C(=O)N[C@@H](CO)C(=O)N[C@@H](CO)C(=O)NCC(=O)N[C@@H](C)C(=O)N1CCC[C@H]1C(=O)N1CCC[C@H]1C(=O)N1CCC[C@H]1C(=O)N[C@@H](CO)C(=O)N[C@@H](CCCCNC(=O)COCCOCCNC(=O)COCCOCCNC(=O)CC[C@H](NC(=O)CCCCCCCCCCCCC(=O)O)C(=O)O)C(N)=O [Example 251]
[1]; [4]
  EC50: > 9950 nM
[1]; cAMP, 37° C., 0.1% bovine casein (no human serum albumin), geometric mean, read-out: hGCGR EC50, nM (SEM, n)
  EC50: > 9950 nM
[2]; HEK293, cAMP, 37° C., 0.1% bovine casein, percent of maximal response to GLP-1(7-36)NH2, arithmetic mean, read-out: hGLP-1R Emax, % ± SEM
  Emax: 99%
[2]; cAMP, 37° C., 0.1% bovine casein (no human serum albumin), read-out: hGLP-1R EC50, nM (SEM, n)
  EC50: 0.338 nM
[3]; [5]
  Emax: 71.2%
[3]; cAMP, 37° C., 0.1% bovine casein (no human serum albumin), read-out: hGIPR EC50, nM (SEM, n)
  EC50: 0.0305 nM
